Assay results as given in patent US12599582B2, “Pyrrole compounds” (ALIGOS THERAPEUTICS, INC., priority 2019, dated 2026).

system: HBV; assay: HBV-DNA Antiviral Assay Using HepG2.2.15 Cells (extracellular HBV DNA by qPCR); format: cell-based, hepatitis B virus (HBV); conditions: HBV DNA inhibition, HepG2.2.15 cells, extracellular HBV DNA by qPCR; read-out: EC50
Method: The following assay procedure describes the HBV antiviral assay. This assay uses HepG2.2.15 cells, which have been transfected with HBV genome, and extracellular HBV DNA quantification as endpoint. Cell viability is assessed in parallel by measuring the intracellular ATP content using the CellTiter-Glo® reagent from Promega.
On day 0, HepG2.2.15 cells were seeded in 96-well plates at a density of 6.0×10^4 cells/well (0.1 mL/well). The cells were incubated at 37° C. and 5% CO2.
On day 1, the test articles were diluted and added to cell culture wells (8 concentrations, 4-fold dilution, in duplicate). GLS4, Tenofovir and Sorafenib were used as reference compounds. 100 μL of culture medium containing the compounds was added to the plate, and the final total volume per well was 200 μL. The final concentration of DMSO in the culture medium was 0.5%. The plate map of compound treatment is shown below. The cells were cultured at 37° C. and 5% CO2 for 3 days.
On day 4, the plates were refreshed with culture media with compounds.
On day 7, cell viability was assessed using the CellTiter-Glo®, and the cell culture supernatants were collected for determination of HBV DNA by qPCR.
Extracellular DNA was isolated with QIAamp 96 DNA Blood Kit per the manufacturer's manual. HBV DNA was then quantified by qPCR with HBV specific primers and probes as specified in Table 1 using the FastStart Universal MasterMix from Roche on an ABI-7900HT. The PCR cycle program consisted of 95° C. for 10 min, followed by 40 cycles at 95° C. for 15 sec and 60° C. for 1 min.
A DNA standard was prepared by dilution of the pAAV2 HBV1.3 plasmid with concentrations ranging from 10 to 1×10^7 copies/uL and used to generate a standard curve by plotting Ct value vs. the concentration of the HBV plasmid DNA standard. The quantity of HBV DNA in each sample was determined by interpolating from the standard curve.
Cell viability was calculated as follows: % Cell viability=(luminescence value of test sample−average luminescence value of blank)/(average luminescence value of 0.5% DMSO control−average luminescence of blank)×100%. HBV DNA inhibition was calculated as follows: 100−(HBV DNA copy number of test sample−HBV DNA copy number of ETV)/HBV DNA copy number of 0.5% DMSO control−HBV DNA copy number of ETV)×100%. The CC50, EC50 and EC90 values were determined by dose-response curves fitted by GraphPad Prism using “log (agonist) vs. response—Variable slope”.

| SMILES | EC50 |
| --- | --- |
| Cc1c(C(=O)C(=O)NC2(c3c[nH]nn3)COC2)c(C)n(C)c1C(=O)Nc1ccc(F)c(C#N)c1 [Compound 29, N-(3-cyano-4-fluoro-phenyl)-1,3,5-trimethyl-4-[2-oxo-2-[[3-(1H-triazol-4-yl)oxetan-3-yl]amino]acetyl]pyrrole-2-carboxamide] | 1 to 10 nM |

same assay, conditions: Hepatitis B virus, HepG2.2.15

| SMILES | EC50 |
| --- | --- |
| C#CC1(NC(=O)C(=O)c2c(C)c(C(=O)Nc3ccc(F)c(C#N)c3)n(C)c2C)COC1 [Compound 26, N-(3-cyano-4-fluorophenyl)-4-[[(3-ethynyloxetan-3-yl)carbamoyl]carbonyl]-1,3,5-trimethylpyrrole-2-carboxamide] | < 1 nM |

same assay, conditions: Hepatitis B virus; HBV DNA inhibition, HepG2.2.15 cells, extracellular HBV DNA by qPCR; read-out: EC50

| SMILES | EC50 |
| --- | --- |
| C#CCNC(=O)C(=O)c1cc(C(=O)Nc2ccc(F)c(C#N)c2)n(C)c1C [Compound 27, N-(3-cyano-4-fluoro-phenyl)-1,5-dimethyl-4-[2-oxo-2-(prop-2-ynylamino)acetyl]pyrrole-2-carboxamide] | 10 to 100 nM |
| C#C[C@@H](COC)NC(=O)C(=O)c1c(C)c(C(=O)Nc2ccc(F)c(C#N)c2)n(C)c1C [Compound 28a, N-(3-cyano-4-fluoro-phenyl)-4-[2-[[(1S)-1-(methoxymethyl)prop-2-ynyl]amino]-2-oxo-acetyl]-1,3,5-trimethyl-pyrrole-2-carboxamide] | 1 to 10 nM |
| C#C[C@H](COC)NC(=O)C(=O)c1c(C)c(C(=O)Nc2ccc(F)c(C#N)c2)n(C)c1C [Compound 28b, N-(3-cyano-4-fluoro-phenyl)-4-[2-[[(1R)-1-(methoxymethyl)prop-2-ynyl]amino]-2-oxo-acetyl]-1,3,5-trimethyl-pyrrole-2-carboxamide] | 1 to 10 nM |
| C#C[C@H](NC(=O)C(=O)c1c(C)c(C(=O)Nc2ccc(F)c(C#N)c2)n(C)c1C)C(C)(C)C [Compound 30a, N-(3-cyano-4-fluoro-phenyl)-1,3,5-trimethyl-4-[2-oxo-2-[[(1R)-1-tert-butylprop-2-ynyl]amino]acetyl]pyrrole-2-carboxamide] | < 1 nM |
| C#C[C@@H](NC(=O)C(=O)c1c(C)c(C(=O)Nc2ccc(F)c(C#N)c2)n(C)c1C)C(C)(C)C [Compound 30b, N-(3-cyano-4-fluoro-phenyl)-1,3,5-trimethyl-4-[2-oxo-2-[[(1S)-1-tert-butylprop-2-ynyl]amino]acetyl]pyrrole-2-carboxamide] | < 1 nM |
| C#CC1(NC(=O)C(=O)c2c(C)c(C(=O)Nc3ccc(F)c(C#N)c3)n(C)c2C)CC(O)C1 (stereo not shown) [Compound 32, N-(3-cyano-4-fluorophenyl)-4-[[(1-ethynyl-3-hydroxycyclobutyl)carbamoyl]carbonyl]-1,3,5-trimethylpyrrole-2-carboxamide] | 1 to 10 nM |
| C=CC1(NC(=O)C(=O)c2c(C)c(C(=O)Nc3ccc(F)c(C#N)c3)n(C)c2C)COC1 [Compound 33, N-(3-cyano-4-fluoro-phenyl)-1,3,5-trimethyl-4-[2-oxo-2-[(3-vinyloxetan-3-yl)amino]acetyl]pyrrole-2-carboxamide] | 1 to 10 nM |
| C#CC1(NC(=O)C(=O)c2c(C)c(C(=O)Nc3ccc(F)c(C(F)(F)F)c3)n(C)c2C)COC1 [Compound 34, 4-[2-[(3-ethynyloxetan-3-yl)amino]-2-oxo-acetyl]-N-[4-fluoro-3-(trifluoromethyl)phenyl]-1,3,5-trimethyl-pyrrole-2-carboxamide] | < 1 nM |
| C#CC(C)(C)NC(=O)C(=O)c1c(C)c(C(=O)Nc2ccc(F)c(C(F)(F)F)c2)n(C)c1C [Compound 35, 4-[2-(1,1-dimethylprop-2-ynylamino)-2-oxo-acetyl]-N-[4-fluoro-3-(trifluoromethyl)phenyl]-1,3,5-trimethyl-pyrrole-2-carboxamide] | < 1 nM |
| C=C[C@H](NC(=O)C(=O)c1c(C)c(C(=O)Nc2ccc(F)c(C#N)c2)n(C)c1C)C(F)(F)F [Compound 36a, N-(3-cyano-4-fluoro-phenyl)-1,3,5-trimethyl-4-[2-oxo-2-[[(1S)-1-(trifluoromethyl)allyl]amino]acetyl]pyrrole-2-carboxamide] | < 1 nM |
| C=C[C@@H](NC(=O)C(=O)c1c(C)c(C(=O)Nc2ccc(F)c(C#N)c2)n(C)c1C)C(F)(F)F [Compound 36b, N-(3-cyano-4-fluoro-phenyl)-1,3,5-trimethyl-4-[2-oxo-2-[[(1R)-1-(trifluoromethyl)allyl]amino]acetyl]pyrrole-2-carboxamide] | < 1 nM |
| C#CC1(NC(=O)C(=O)c2c(C)c(C(=O)Nc3ccc(F)c(C(F)(F)F)c3)n(C)c2C)CC(F)(F)C1 [Compound 37, 4-[2-[(1-ethynyl-3,3-difluoro-cyclobutyl)amino]-2-oxo-acetyl]-N-[4-fluoro-3-(trifluoromethyl)phenyl]-1,3,5-trimethyl-pyrrole-2-carboxamide] | < 1 nM |
| C#C[C@H](NC(=O)C(=O)c1c(C)c(C(=O)Nc2ccc(F)c(C(F)(F)F)c2)n(C)c1C)C1CC1 [Compound 38a, N-[4-fluoro-3-(trifluoromethyl)phenyl]-1,3,5-trimethyl-4-[2-oxo-2-[[(1R)-1-cyclopropylprop-2-ynyl]amino]acetyl]pyrrole-2-carboxamide] | < 1 nM |
| C#C[C@@H](NC(=O)C(=O)c1c(C)c(C(=O)Nc2ccc(F)c(C(F)(F)F)c2)n(C)c1C)C1CC1 [Compound 38b, N-[4-fluoro-3-(trifluoromethyl)phenyl]-1,3,5-trimethyl-4-[2-oxo-2-[[(1S)-1-cyclopropylprop-2-ynyl]amino]acetyl]pyrrole-2-carboxamide] | < 1 nM |
| C#CC1(NC(=O)C(=O)c2c(C)c(C(=O)Nc3ccc(F)c(C#N)c3)n(C)c2Cl)CC(F)(F)C1 [Compound 39, 5-chloro-N-(3-cyano-4-fluoro-phenyl)-4-[2-[(1-ethynyl-3,3-difluoro-cyclobutyl)amino]-2-oxo-acetyl]-1,3-dimethyl-pyrrole-2-carboxamide] | < 1 nM |
| C#CC1(NC(=O)C(=O)c2c(C)c(C(=O)Nc3ccc(F)c(C#N)c3)n(C)c2Cl)COC1 [Compound 40, 5-chloro-N-(3-cyano-4-fluoro-phenyl)-4-[2-[(3-ethynyloxetan-3-yl)amino]-2-oxo-acetyl]-1,3-dimethyl-pyrrole-2-carboxamide] | < 1 nM |
| C=CC1(NC(=O)C(=O)c2c(C)c(C(=O)Nc3ccc(F)c(C#N)c3)n(C)c2Cl)COC1 [Compound 41, 5-chloro-N-(3-cyano-4-fluoro-phenyl)-1,3-dimethyl-4-[2-oxo-2-[(3-vinyloxetan-3-yl)amino]acetyl]pyrrole-2-carboxamide] | 1 to 10 nM |
| C#CC1(NC(=O)C(=O)c2c(C)c(C(=O)Nc3ccc(F)c(C(F)(F)F)c3)n(C)c2C)CC(O)C1 (stereo not shown) [Compound 49, 4-[2-[(1-ethynyl-3-hydroxy-cyclobutyl)amino]-2-oxo-acetyl]-N-[4-fluoro-3-(trifluoromethyl)phenyl]-1,3,5-trimethyl-pyrrole-2-carboxamide] | < 1 nM |
| CC#CC1(NC(=O)C(=O)c2c(C)c(C(=O)Nc3ccc(F)c(C#N)c3)n(C)c2C)COC1 [Compound 50, N-(3-cyano-4-fluoro-phenyl)-1,3,5-trimethyl-4-[2-oxo-2-[(3-prop-1-ynyloxetan-3-yl)amino]acetyl]pyrrole-2-carboxamide] | < 1 nM |
| C=CC1(NC(=O)C(=O)c2c(Cl)c(C(=O)Nc3ccc(F)c(C#N)c3)n(C)c2C)CC(F)(F)C1 [Compound 51, 3-chloro-N-(3-cyano-4-fluoro-phenyl)-4-[2-[(3,3-difluoro-1-vinyl-cyclobutyl)amino]-2-oxo-acetyl]-1,5-dimethyl-pyrrole-2-carboxamide] | < 1 nM |
| C#CC1(NC(=O)C(=O)c2c(Cl)c(C(=O)Nc3ccc(F)c(C#N)c3)n(C)c2C)CC(F)(F)C1 [Compound 52, 3-chloro-N-(3-cyano-4-fluoro-phenyl)-4-[2-[(1-ethynyl-3,3-difluoro-cyclobutyl)amino]-2-oxo-acetyl]-1,5-dimethyl-pyrrole-2-carboxamide] | < 1 nM |
| C=CC1(NC(=O)C(=O)c2c(C)c(C(=O)Nc3ccc(F)c(C#N)c3)n(C)c2C)CC(F)(F)C1 [Compound 53, N-(3-cyano-4-fluoro-phenyl)-4-[2-[(3,3-difluoro-1-vinyl-cyclobutyl)amino]-2-oxo-acetyl]-1,3,5-trimethyl-pyrrole-2-carboxamide] | 1 to 10 nM |
| C#CC1(NC(=O)C(=O)c2c(F)c(C(=O)Nc3ccc(F)c(C#N)c3)n(C)c2C)COC1 [Compound 55, N-(3-cyano-4-fluoro-phenyl)-4-[2-[(3-ethynyloxetan-3-yl)amino]-2-oxo-acetyl]-3-fluoro-1,5-dimethyl-pyrrole-2-carboxamide] | < 1 nM |
